molecular target: Hepatocyte growth factor receptor (Homo sapiens, UniProt P08581); test: HTRF Kinase Inhibition Assay; details: pH 7.4; 22 °C
Experimental: In vitro kinase assays were done to establish IC50 values against recombinant enzymes using homogeneous time-resolved fluorescence (HTRF) assay. Molecules were tested in a 10-point serial dilution using an ATP concentration of two thirds Km values that were determined for the enzymes and calculated using the Eadie-Hofstee and Lineweaver-Burke methods. The fluorescence ratios were read on a Rubystar instrument (BMG labtech Inc.).

SMILES | IC50
COc1ccc2c(OCc3nnc4ccc(-c5cc(C)cs5)nn34)ccnc2c1 [7-methoxy-4-{[6-(4-methylthiophen-2-yl)-[1,2,4]triazolo[4,3-a]pyridazin-3-yl]methoxy}quinoline] | 1 nM
COc1ccc2c(OCc3nnc4ccc(-c5cccs5)nn34)ccnc2c1 [7-methoxy-4-{[6-(thiophen-2-yl)-[1,2,4]triazolo[4,3-a]pyridazin-3-yl]methoxy}quinoline] | 2 nM
COc1ccc2c(OCc3nnc4ccc(-c5ccsc5)nn34)ccnc2c1 [7-methoxy-4-{[6-(thiophen-3-yl)-[1,2,4]triazolo[4,3-a]pyridazin-3-yl]methoxy}quinoline] | 4 nM
